From patent US20060188913A1, “Methods and products for enhancing immune responses using imidazoquinoline compounds” (University of Iowa Research Foundation, priority 2001, published 2006)

Experiments:
[1] = test system: NF-kappa B luciferase reporter gene; test: NF-kappa B luciferase reporter in transfected 293T cells, TLR-independent positive control; format: cell-based, human; conditions: FIG. 2A
Experimental: (§1) Cells used for transfections were 293T (human embryo kidney cells, T-antigen transfected) or 293-TLR9-Luc (stable transfectants, human embryo kidney cells expressing the human TLR9 receptor and containing a genomic NF-kappa B-luciferase cassette).
(§2) Stimulation was performed 24 h after transfection. Medium of the cells was reduced to 1 ml (without medium change) and cells were stimulated with indicated amounts of R-848, LPS, ODN 8954, 2006 and IL-1 beta for 16 h.
(§3) Cell extracts were prepared by lysing the cells in 100 μl reporter lysis buffer using the freeze-thaw method. NF-kappa B stimulation was measured through luciferase activity (Promega). All data were normalized for beta-gal expression. Stimulation indices were calculated in reference to luciferase activity of medium without addition of ODN.
293T cells, stably transfected with a NF-kappa B-luciferase reporter construct, were transiently transfected with plasmids (pcDNA3.1 constructs) coding for full length hTLR2, hTLR7, hTLR8 and hTLR9. All transfections were normalized to beta-galactosidase activity. Twenty-four hours following transfection, cells were stimulated with R-848, LPS, CpG ODN 8954 (5′ […] 3′, SEQ ID NO:4), CpG ODN 2006, or IL-1 and then assayed for luciferase activity 16 h after stimulation. Each experiment was done at least twice with similar results.

hTLR8 [2] = molecular target: T1, hTLR8 (Homo sapiens, UniProt Q9NR97); test: NF-kappa B luciferase activation in 293T cells transiently transfected with hTLR8; format: cell-based; conditions: hTLR8-transfected 293T cells
T1 construct: plasmids (pcDNA3.1 constructs) coding for full length hTLR2, hTLR7, hTLR8 and hTLR9; expressed in transfected cells; host or cells: 293T cells
T1 sequence (Q9NR97 27-1041): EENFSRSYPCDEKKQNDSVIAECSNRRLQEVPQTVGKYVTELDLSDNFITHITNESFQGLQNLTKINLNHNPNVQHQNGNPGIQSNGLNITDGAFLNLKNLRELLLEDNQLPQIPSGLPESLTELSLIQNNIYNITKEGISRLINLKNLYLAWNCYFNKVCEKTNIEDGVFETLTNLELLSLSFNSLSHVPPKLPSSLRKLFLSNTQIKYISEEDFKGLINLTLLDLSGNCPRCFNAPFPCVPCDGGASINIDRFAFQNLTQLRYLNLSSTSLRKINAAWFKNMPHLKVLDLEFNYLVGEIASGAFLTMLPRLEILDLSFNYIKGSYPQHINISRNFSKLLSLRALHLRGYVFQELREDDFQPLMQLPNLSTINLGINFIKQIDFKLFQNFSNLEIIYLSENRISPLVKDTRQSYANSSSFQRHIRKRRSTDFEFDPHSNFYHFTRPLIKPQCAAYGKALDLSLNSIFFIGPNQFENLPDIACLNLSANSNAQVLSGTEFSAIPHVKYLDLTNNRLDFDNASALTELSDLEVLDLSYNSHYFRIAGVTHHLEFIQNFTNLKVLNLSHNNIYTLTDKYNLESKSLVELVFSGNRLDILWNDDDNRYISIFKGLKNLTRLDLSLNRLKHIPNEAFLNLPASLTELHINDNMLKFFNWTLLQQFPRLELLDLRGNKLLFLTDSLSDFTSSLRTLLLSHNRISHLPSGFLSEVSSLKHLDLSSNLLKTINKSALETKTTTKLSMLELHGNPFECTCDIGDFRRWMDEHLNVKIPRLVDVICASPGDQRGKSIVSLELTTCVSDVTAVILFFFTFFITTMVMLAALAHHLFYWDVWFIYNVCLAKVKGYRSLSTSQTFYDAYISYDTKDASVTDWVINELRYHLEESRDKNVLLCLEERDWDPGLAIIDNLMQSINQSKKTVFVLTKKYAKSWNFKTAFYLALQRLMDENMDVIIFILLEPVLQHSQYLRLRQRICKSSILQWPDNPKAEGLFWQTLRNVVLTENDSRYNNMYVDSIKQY
Experimental: as §1
(§4) Transfections were performed in six-well plates. Cells were plated the day before transfection at 4×10^5/well in DMEM+10% FCS.
(§5) Constructs: TLR cDNAs were cloned into pcDNA3.1. NF-kappa B activation was measured by using an 5× NF-kappa B-Luciferase construct (Stratagene). Transfection efficiency was determined by using a beta-galactosidase (beta-gal) reporter construct (p beta-Gal-Control, Clontech).
as §2, §3
(§6) 293T cells, stably transfected with a NF-kappa B-luciferase reporter construct, were transiently transfected with plasmids (pcDNA3.1 constructs) coding for full length hTLR2, hTLR7, hTLR8 and hTLR9. […]

hTLR7 [3] = molecular target: T2, hTLR7 (Homo sapiens, UniProt Q9NYK1); test: NF-kappa B luciferase activation in 293T cells transiently transfected with hTLR7; format: cell-based; conditions: hTLR7-transfected 293T cells
T2 construct: plasmids (pcDNA3.1 constructs) coding for full length hTLR2, hTLR7, hTLR8 and hTLR9; expressed in transfected cells; host or cells: 293T cells
T2 sequence (Q9NYK1 27-1049): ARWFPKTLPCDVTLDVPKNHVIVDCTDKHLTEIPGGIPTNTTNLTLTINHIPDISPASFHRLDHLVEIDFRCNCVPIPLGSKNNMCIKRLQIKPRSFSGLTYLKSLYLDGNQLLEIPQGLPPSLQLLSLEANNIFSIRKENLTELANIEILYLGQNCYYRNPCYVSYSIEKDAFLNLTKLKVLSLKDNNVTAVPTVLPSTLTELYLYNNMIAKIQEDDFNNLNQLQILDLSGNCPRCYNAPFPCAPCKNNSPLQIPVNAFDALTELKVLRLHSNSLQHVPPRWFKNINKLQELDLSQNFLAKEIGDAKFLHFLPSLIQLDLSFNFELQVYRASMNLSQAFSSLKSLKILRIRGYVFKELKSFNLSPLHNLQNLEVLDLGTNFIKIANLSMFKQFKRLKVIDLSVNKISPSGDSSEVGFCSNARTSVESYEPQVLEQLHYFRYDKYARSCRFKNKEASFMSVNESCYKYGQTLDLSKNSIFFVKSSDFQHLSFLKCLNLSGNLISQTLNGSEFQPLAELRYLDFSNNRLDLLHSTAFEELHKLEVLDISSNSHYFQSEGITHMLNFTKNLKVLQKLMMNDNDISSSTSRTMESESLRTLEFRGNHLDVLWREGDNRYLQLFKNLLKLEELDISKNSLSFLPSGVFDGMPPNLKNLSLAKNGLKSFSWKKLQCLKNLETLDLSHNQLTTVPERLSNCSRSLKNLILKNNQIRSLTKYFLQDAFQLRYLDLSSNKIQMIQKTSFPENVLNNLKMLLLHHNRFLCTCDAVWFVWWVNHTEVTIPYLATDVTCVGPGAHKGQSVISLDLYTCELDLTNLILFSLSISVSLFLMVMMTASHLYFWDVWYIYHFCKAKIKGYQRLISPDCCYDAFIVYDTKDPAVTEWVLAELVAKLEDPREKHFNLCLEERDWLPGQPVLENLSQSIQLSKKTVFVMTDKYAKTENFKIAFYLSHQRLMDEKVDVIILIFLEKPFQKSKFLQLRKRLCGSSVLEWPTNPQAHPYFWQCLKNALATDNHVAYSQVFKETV
Experimental: as §1, §4, §5, §2, §3, §6

human PBMC [4] = test: IFN-gamma secretion by human PBMC (ELISA); format: cell-based; conditions: 48 hours, compared to R-848, not shown
Experimental: (§7) This experiment investigated the induction of the Th1 cytokine IFN-gamma as well as the Th1-related chemokine IP-10 (IFN-gamma inducible protein). Unfractionated human PBMC from three donors were incubated for 48 hours in the presence of varying concentrations of R-848 (0.01-1.0 μg/ml), varying concentrations of CpG ODN 2006 (0.2-3.0 μg/ml), varying concentrations of negative control ODN 5177 (0.2-3.0 μg/ml), SEB (50 ng/ml), or media alone, and then the concentrations of IP-10 and IFN-gamma in the supernatant were measured by ELISA.

human PBMC [5] = test: IP-10 secretion by human PBMC (ELISA); format: cell-based; conditions: 48 hours, ODN 0.2-3.0 μg/ml versus R-848 0.01-1.0 μg/ml, FIG. 6A
Experimental: as §7
In FIG. 6B, the combined effects of R-848 and CpG ODN (e.g., #2006) on IP-10 secretion are shown. Human PBMCs from three different donors were incubated for 48 hours with the indicated concentrations of ODNs and R-848, either individually or together. Supernatants were harvested and IP-10 was measured by ELISA. The data represent mean cytokine amounts.

hTLR7 [6] = molecular target: T2, hTLR7; test: IL-8 production in 293 fibroblasts transiently expressing hTLR7; format: cell-based; conditions: CpG-ODN 2 μM, LPS 100 ng/ml
Experimental: (§8) The cloned human TLR7 and human TLR8 cDNA were cloned into the expression vector pCDNA3. 1 (−) from Invitrogen using the NotI site. Utilizing a “gain of function” assay, hTLR7 and hTLR8 expression vectors were transiently expressed in human 293 fibroblasts (ATCC, CRL-1573) using the calcium phosphate method. Activation was monitored by IL-8 production after stimulus with CpG-ODN (2006 or 1668, 2 μM) or LPS (100 ng/ml).

hTLR8 [7] = molecular target: T1, hTLR8; test: IL-8 production in 293 fibroblasts transiently expressing hTLR8; format: cell-based; conditions: CpG-ODN 2 μM, LPS 100 ng/ml
Experimental: as §8

hTLR2 = molecular target: T3, hTLR2 (Homo sapiens, UniProt O60603); test: NF-kappa B luciferase activation in 293T cells transfected with hTLR2; format: cell-based
T3 construct: plasmids (pcDNA3.1 constructs) coding for full length hTLR2, hTLR7, hTLR8 and hTLR9; expressed in transfected cells; host or cells: 293T cells carrying an NF-kappa B-luciferase reporter
Experimental: as §1, §4, §5, §2, §3, §6

T3 sequence (O60603 21-784): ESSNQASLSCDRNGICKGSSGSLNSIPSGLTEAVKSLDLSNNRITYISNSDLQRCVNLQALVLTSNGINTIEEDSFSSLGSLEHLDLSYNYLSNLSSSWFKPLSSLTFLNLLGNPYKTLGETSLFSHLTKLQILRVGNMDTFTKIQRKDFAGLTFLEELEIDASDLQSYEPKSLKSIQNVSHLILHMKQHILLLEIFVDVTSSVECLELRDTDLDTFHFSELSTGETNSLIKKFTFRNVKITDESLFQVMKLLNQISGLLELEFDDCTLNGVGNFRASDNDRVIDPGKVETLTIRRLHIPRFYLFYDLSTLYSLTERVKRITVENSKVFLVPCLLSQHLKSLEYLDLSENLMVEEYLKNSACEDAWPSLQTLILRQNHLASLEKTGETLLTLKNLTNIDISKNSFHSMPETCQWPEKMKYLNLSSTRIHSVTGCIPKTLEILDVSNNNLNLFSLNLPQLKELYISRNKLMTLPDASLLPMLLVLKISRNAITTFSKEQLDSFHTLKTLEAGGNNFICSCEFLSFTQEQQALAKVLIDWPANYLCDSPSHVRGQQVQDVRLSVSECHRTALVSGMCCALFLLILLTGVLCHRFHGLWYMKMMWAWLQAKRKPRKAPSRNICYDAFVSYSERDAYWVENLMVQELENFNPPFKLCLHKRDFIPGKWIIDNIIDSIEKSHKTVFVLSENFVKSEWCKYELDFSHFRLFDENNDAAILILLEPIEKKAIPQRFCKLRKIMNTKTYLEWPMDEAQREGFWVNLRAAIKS

| Substance | NF-kappa B activation through hTLR8 (in words) (hTLR8 [2]) | NF-kappa B activation through hTLR7 (in words) (hTLR7 [3]) | activation monitored by IL-8 production (hTLR7 [6]) | activation monitored by IL-8 production (hTLR8 [7]) | other results |
| --- | --- | --- | --- | --- | --- |
| IL-1: cytokine used as positive control for NF-kappa B activation | – | – | – | – | activation of NF-kappa B luciferase reporter gene (in words) [1]: activated the NF-kappa B luciferase reporter gene in a TLR-independent manner |
| CpG ODN 8954: CpG ODN 5′ GGGGACGACGTCGTGGGGGGG 3′, SEQ ID NO:4 (listed as DNA, chemistry not fully specified) | Neither LPS nor the CpG ODN 8954 appeared to activate | Neither LPS nor the CpG ODN 8954 appeared to activate | – | – | – |
| ODN 5177: negative control ODN 5′ TCCGCCTGTGACATGCATT 3′; SEQ ID NO:5 (listed as DNA, chemistry not fully specified) | – | – | – | – | IFN-gamma induction (human PBMC [4]): The same result was obtained; IP-10 induction (human PBMC [5]): but not the negative control ODN 5177 induced similar amounts of IP-10 |
| 1668: CpG-ODN TCCATGACGTTCCTGATGCT, SEQ ID NO:12 (listed as DNA, chemistry not fully specified) [compound 1668] | – | – | None of the stimuli used activated | None of the stimuli used activated | – |
| lipopolysaccharide [LPS] | Neither LPS nor the CpG ODN 8954 appeared to activate | Neither LPS nor the CpG ODN 8954 appeared to activate | None of the stimuli used activated | None of the stimuli used activated | NF-kappa B activation through hTLR2 (in words) (hTLR2): activated by LPS |
